The subject of one assay is oct4. The assay is described as follows: RT-qPCR of oct4 RNA in AGS cells. As to conditions: 10 μM, 4 days, FIG. 2. The class given is cell-based, human. How it is done: Approximately 2.5×10^5 AGS cells were treated for 4 days with DMSO alone (no drug treatment) or 10 μM compound I-1 in DMSO. Cells were lysed and RNA was extracted using Zymo's Quick RNA-Microprep following manufacturer instructions. 100 ng of RNA were reverse transcribed using MuLV reverse transcriptase (New England Biolabs, USA). qPCR was performed using 2 ul of cDNA and Luna Universal qPCR Master Mix from NEB in a Stratagene Mx3005P.
AGS gastric cancer cells were treated with either DMSO alone (no drug treatment) or compound I-1 at […] for 4 days. RNA was isolated and oct4 RNA levels were measured by RT-qPCR.
A general note: Quantitative PCR measures a nucleic acid by following its amplification.

The subject of a further assay is DLD-1. The assay is described as follows: Growth inhibition of cancer cell lines. The note with it: Homo sapiens; DLD-1, Dukes' type C, colorectal adenocarcinoma; 50% inhibition of growth. The class given is cell-based. From the text: (§1) We tested the ability of compound I-1 to inhibit the growth of 12 additional cell lines, derived from a variety of different types of human cancer.

The test system of a further assay is Colo205. The assay is described as follows: Growth inhibition of cancer cell lines. The class given is cell-based. As to conditions: Homo sapiens, COLO 205; Colo205, Dukes' type D, colorectal adenocarcinoma; 50% inhibition of growth.
From the text: as §1

Another assay relates to CFPAC-1. The assay is described as follows: Growth inhibition of cancer cell lines. The class given is cell-based. As to conditions: Homo sapiens; CFPAC-1, pancreatic adenocarcinoma; 50% inhibition of growth.
From the text: as §1

For a further assay, the system named is UACC-62. The assay is described as follows: Growth inhibition of cancer cell lines. The class given is cell-based. The note with it: Homo sapiens; UACC-62, melanoma; 50% inhibition of growth.
From the text: as §1

The next assay deals with MCF-7. The assay is described as follows: Growth inhibition of cancer cell lines. As to conditions: Homo sapiens, MCF7; MCF-7, breast cancer; 50% inhibition of growth. The class given is cell-based.
From the text: as §1

The next assay concerns A549. The assay is described as follows: Growth inhibition of cancer cell lines. The class given is cell-based. As to conditions: Homo sapiens; A549, lung adenocarcinoma; 50% inhibition of growth.
From the text: as §1

The next assay relates to IGROV-1. The assay is described as follows: Growth inhibition of cancer cell lines. The class given is cell-based. The note with it: Homo sapiens; IGROV-1, ovarian adenocarcinoma; 50% inhibition of growth.
From the text: as §1

Another assay has as its system A498. The assay is described as follows: Growth inhibition of cancer cell lines. The class given is cell-based. As to conditions: Homo sapiens; A498, kidney carcinoma; 50% inhibition of growth.
From the text: as §1

The next assay concerns NCI-H69. The assay is described as follows: Growth inhibition of cancer cell lines. The class given is cell-based. As to conditions: Homo sapiens; NCI-H69, small cell lung cancer; 50% inhibition of growth.
From the text: as §1

Where only a bound is given, the exact number is not on record here.

What is called IC50 is the point on the concentration scale where inhibition reaches its midpoint. The low end stands for greater potency, the high end for weaker potency. For the molecule `CCC(=O)N1CCc2cc(-c3ccc(C(=O)NCc4cccnc4)cc3)ccc21` [Compound I-1], the “oct4 expression in gastric cancer cells” value in the assay on oct4 is recorded as “decreased”. Besides, the half-inhibitory concentration (IC50) is greater than 10 µM in the assay with DLD-1; greater than 10 µM in the assay on Colo205; 8.24 µM with CFPAC-1; greater than 10 µM with UACC-62; 6 µM in the assay with MCF-7; greater than 10 µM with A549. Moreover, the concentration for half-maximal inhibition (IC50) was 4.54 µM in the assay on IGROV-1, greater than 10 µM in the assay with A498 and 1.5 µM in the assay on NCI-H69.

The values are drawn from patent publication US12522587B2, “Cancer treatments targeting cancer stem cells” (Remedy Plan, Inc., priority 2018, dated 2026).
